Reference: US9226503B2, “Composition and method for attraction of emerald ash borer Agrilus planipennis fairmaire (coleoptera: buprestidae)” (Her Majesty the Queen in Right of Canada, as represented by …, priority 2011, dated 2016)

How the values were obtained:
[1] = tested on: A. planipennis; experiment: Two-choice Y-tube olfactometer assay; assay type: in vivo, Agrilus planipennis; conditions: (3Z)-hexenol 5 μg
Method: A Y-tube olfactometer (Analytical Research Systems Inc, Gainsville, Fla.) was used to test for attraction of A. planipennis to lactone isomers and host volatiles. […] Each arm was connected to a cylinder that contained the stimulus. Charcoal filtered air was passed into each arm at a flow rate of 1.2 L/min. Treatments included the pheromone alone: (3Z)-lactone (10 μg); (3E)-lactone (10 μg); and 60:40 (3E):(3Z)-lactone (10 μg). Next, we tested bark sesquiterpenes and a green leaf volatile alone: Phoebe oil (25 μg and 2.5 μg) and (3Z)-hexenol (5 μg). We then tested the pheromone combined with bark sesquiterpenes: (3Z)-lactone (10 μg)+Phoebe oil (at both 25 μg and 2.5 μg); (3E)-lactone (10 μg)+Phoebe oil (at both 25 μg and 2.5 μg). Finally, we tested the pheromone combined with the green leaf volatile: (3Z)-lactone (10 μg)+(3Z)-hexenol (5 μg); and (3E)-lactone (10 μg)+(3Z)-hexenol (5 μg). Each stimulus (l μl for single compound treatments and a total of 2 μl for two-compound treatments) was diluted in hexane, placed on a strip of filter paper and given one minute for the solvent to evaporate before being placed in the olfactometer. A second filter paper, treated with the equivalent volume of solvent was placed in the other arm of the olfactometer to serve as the control. The apparatus was rinsed with acetone after each treatment, and the arm attached to the test stimulus was randomized between replicates.
For each treatment, we tested increasing numbers of adults until we obtained a minimum of 12 beetles responding to the stimuli (either positively or negatively). To obtain this minimum, we tested 15-54 beetles per treatment. For each trial, a single A. planipennis (mature virgin male or female, >10 days old) was given ten minutes to choose between the two stimuli; adults were used only once in the bioassay. […] A chi-square test was conducted for each independent trial.

[2] = tested on: A. planipennis; experiment: Field trapping 2011 experiment 2: (3Z)-lactone, (3Z)-hexenol and trap height factorial, dark green traps; assay type: in vivo, Agrilus planipennis; conditions: 2×2×2 factorial, lactone 3 mg/lure
Method: Two trapping experiments were conducted in green and white ash plantations (F. pennsylvanica Marsch and F. americana L.) located 40-60 km southeast of Sarnia, Ontario in 2011. Trees were 20-30 yr old, 5-8 m tall, 12-18 cm in diameter, and spaced 2-3 m apart within and between rows. Five sites were used in total: four were green ash and the fifth was a white ash plantation. Trees at four of the sites generally appeared healthy with few or no signs of decline and only a few with obvious signs and symptoms of infestation by A. planipennis. At the fifth site, obvious crown decline and signs of infestation were apparent on about one-quarter of trees.
Green prism sticky traps (0.30 cm×35.00 cm×58.75 cm) (Synergy Semiochemicals Corp., Burnaby, BC) were used in all field trials, deployed using modified umbrella rig spreaders (Zing Products, Westport, Mass.). Traps were spaced 20-25 m apart and lure treatments replicated in randomized complete block designs. Traps were deployed either using ropes tied between two trees or using a single line over a canopy branch, as described further below for each specific experimental objective. Traps were typically checked every 2 wk and A. planipennis were collected, counted, and sexed.
Experiment 2 was a 2×2×2 factorial experiment designed to test the effects of (3Z)-lactone, (3Z)-hexenol, trap height, and their interactions on numbers of A. planipennis captured on sticky, dark green (540-nm wavelength) (Francese et al 2010a) prism traps. Traps were baited with either (3Z)-lactone, (3Z)-hexenol, (3Z)-lactone+(3Z)-hexenol, or neither compound (unbaited control) and all treatments were deployed both below the canopy or in the mid-canopy. Traps placed below the canopy were suspended from ropes tied between two trees so the trap was 1-1.5 m from either tree and the top of the trap was 1.5-2 m above the ground. Traps in the canopy were deployed from a single line looped over a mid-canopy branch such that traps were 1-1.5 m from the main stem and their tops were 6 m above ground. (3Z)-Lactone was loaded onto rubber septa lures at a dosage of 3 mg/lure. Release rates of the (3Z)-lactone and (3Z)-hexenol were 60-70 μg/day and 50-100 mg/day, respectively at 25° C. Traps were in the field from 8 June-5 August, with one block at one site (Nauvoo Ranch), 5 blocks at a second site (LaSalle, the one white ash plantation), and 4 blocks at a third site (Brook Line). The 3 mg (3Z)-lactone lures were estimated to maintain adequate release rates for a minimum of three weeks and thus were replaced after three weeks; (3Z)-hexenol lures were not replaced during the experiment.
Numbers of A. planipennis captured in the trapping experiments were subjected to ANOVA separately for males and females. […]

[3] = tested on: A. planipennis; conditions: background, cited studies; cited from earlier work
[4] = tested on: A. planipennis; conditions: Silk et al. 2009; cited from earlier work
[5] = tested on: A. planipennis antennae; experiment: EAG dose-response study; parameters: species or system Agrilus planipennis; conditions: 1 μg applied dose; n=80, 15 antennal preparations
From the text: EAG analyses were made by methods and equipment generally described by Cossé & and Bartelt (2000). EAG connections were made by inserting a glass-pipette silver-grounding electrode into the back of an excised beetle head. A second glass-pipette silver-recording probe was placed in contact with the distal end of one antenna. Both pipettes were filled with Beadle-Ephrussi (Ephrussi and Beadle 1936) saline.
For the EAG-dose-response study, (3Z)- and (3E)-lactones were purified (99.9% purity by GC/MS) by high performance liquid chromatography (HPLC) using a Waters 515 pump, a Waters R401 refractive index detector, and a 25 cm by 0.46 cm i.d. silica column (Adsorbosphere Silica 5 μm, Alltech, Deerfield, Ill.), treated with silver nitrate as described by Heath and Sonnett (1980). Solvent was 8% ether in hexane. Ten micro liters of serially diluted solutions (methylene chloride) of synthetic (3Z)-lactone and (3E)-lactone were applied to filter paper strips (0.5 cm×5 cm, Whatman no. 1). The filter paper strips were placed in 14-cm-long Pasteur pipettes, hereafter referred to as stimulus cartridges, after 5 min at room temperature. Stimulus doses tested were 0.01, 0.1, 1, 10, and 100 μg. Male and female antennae were exposed to single 0.2s puffs of odor-bearing air at 5 ml/s by placing the tip of an stimulus cartridge into a hole of a glass tube (0.7 cm ID×20 cm), 10 cm from the outlet and 11 cm away from the antennal preparation. Airflow through the glass tube was humidified and set at 10 ml/s. Puff duration and airflow speeds were maintained by a stimulus flow controller (SFC-2, Syntech, Hilversum, The Netherlands). Stimuli cartridges were selected in random order, beginning with the lowest dosages and working upward to the highest dosages. Each puffed dosage was preceded and followed by a puff from a solvent blank cartridge (filter paper plus solvent). To compensate for possible deterioration of the antennal preparation, a standard control compound, geranyl acetone (1 μg dose) preceded dosages of stimuli compound. EAG amplitudes were normalized according to the responses to geranyl acetone by dividing the amplitude of the EAG generated by the test compounds by that of geranyl acetone. Dose-response series were replicated, using different antennal preparation for each replication, and the EAG responses were expressed as a percentage of the EAG responses to geranyl acetone. Each antennal preparation was tested with freshly prepared sets of stimuli cartridges. Male and female EAG responses were submitted to analysis of variance (ANOVA) using Statistica for Windows software (StatSoft Inc. Tulsa, Okla.)).

[6] = females, low dose of Phoebe oil

For `CC/C=C\CCO` [(3Z)-hexenol], the “attraction of females in Y-tube olfactometer vs hexane control” value [1, 6] was “slightly attracted”, the “females responded in Y-tube olfactometer” value [1, 6] was 75% and the “attraction of males in Y-tube olfactometer vs hexane control” value ([1]; males, lactone 10 μg, chi-square test) was “highly attracted”. The “mean capture of males per trap, effect of presence of the lure component” value [2] was “significantly and positively affected”, the “mean catch of females, effect of the lure component” value [2] was “not” and the “attractiveness to A. planipennis (literature)” value [3] was “highly antennally active and attractive to males”.
For `CCCCCCCCCCCCCCCCC(C)CCCCCCCC` (centres unmarked) [9-methylpentacosane], the “copulatory activity in males upon antennal contact (literature)” value [4] is listed as “stimulates full copulatory activity in males”.
With `CC(=O)CC/C=C(\C)CCC=C(C)C` [geranyl acetone, reference compound] the “mean EAG response of antennae to standard (±SD)” value [5] was −0.06±0.03 mV.
